From patent US20210332083A1, “Netrin-1 Compounds and Compositions Thereof for Treating Pulmonary Hypertension” (The Regents of the University of California, priority 2018, published 2021)
Positions of bridges follow the written chain, without caps; N, C: chain ends. Non-standard residues stand in square brackets, D forms with d. No end group written: not given here. mini‑PEG = diethylene glycol

System: hypoxia induced pulmonary hypertensive mice
Experiment: Hemodynamic analysis (mPAP, RVSP by catheter) in hypoxia induced PH mice
Type: in vivo, C57BL/6 mice
Settings: for mPAP (mmHg) / RVSP (mmHg): Mean ± SEM; for % Improvement (reduction in pressure/increase), RVSP / % Improvement (reduction in pressure/increase), mPAP: vs hypoxia w/o treatment; for % Reduction RVSP / % Reduction mPAP: Table 3, (negative control mmHg-netrin-1 compound)/(negative control mmHg); for mean pulmonary arterial pressure (mPAP) / right ventricular systolic pressure (RVSP): mice, 10% oxygen 21 days, 15 ng/day s.c. mini-osmotic pump, mean±SEM; for mean pulmonary arterial pressure (mPAP): hypoxia 40.54±4.473, normoxia 19.41±1.281; for right ventricular systolic pressure (RVSP): hypoxia 41.94±3.287, normoxia 32.20±1.884
Protocol: All animal experiments were approved by the Institutional Animal Care and Usage Committee at the University of California, Los Angeles (UCLA). […] groups of 9-12 weeks old male C57BL/6 mice (Charles River Laboratories, Wilmington, Mass.) were implanted using mini-osmotic pumps subcutaneously releasing the given netrin-1 compound (netrin-1, V1-9aa, V2-10aa, V3-11aa, V1P, V2P, V3P, V1S, V1T, V1D, V1C) at 15 ng/day, and the mice were housed under room air or 10% oxygen conditions in a normobaric chamber for 21 days. The hypoxic environment was maintained by continuous mixed gas flow (10% oxygen/90% nitrogen gas). The animals were fed and watered ad libitum, and cages were changed twice weekly. After the chamber was closed, the mixed gas was flushed to recover the hypoxic environment as quickly as possible. Animals were maintained at 20° C. with a 12:12-hour light-dark cycle. At the end of the treatment period, animals were anesthetized and hemodynamic analyses were performed by introducing 1.4 F catheter (Millar instruments, Houston, Tex.) into right ventricle and pulmonary artery. The right ventricular systolic blood pressure (RVSP) and the mean pulmonary arterial pressure (mPAP) were recorded using a Power Lab data acquisition system (ADInstruments Inc., CO).
All animal experiments were approved by the Institutional Animal Care and Usage Committee at the University of California, Los Angeles (UCLA). Eleven groups of 9-12 weeks old male C57BL/6 mice (Charles River Laboratories, Wilmington, Mass.) were implanted using mini-osmotic pumps subcutaneously releasing Netrin-1 derived peptides and modified peptides at 15 ng/day (Netrin-1, V1, V2, V3, V1P, V2P, V3P, V1S, V1T, V1D and V1C), and the mice were housed under room air or 10% oxygen conditions in a normobaric chamber for 21 days. The hypoxic environment was maintained by continuous mixed gas flow (10% oxygen/5% CO2 balanced with nitrogen gas). The animals were fed and watered ad libitum, and cages were changed twice weekly. After the chamber was closed, the mixed gas was flushed to recover the hypoxic environment as quickly as possible. Animals were maintained at 20° C. with a 12:12-hour light-dark cycle.
At the end of the treatment period, animals were anesthetized and hemodynamic analysis were performed by introducing 1.4 F catheter (Mikro-Tip® catheter-transducer; Model SPR-671, Millar instruments, Houston, Tex.) into both right and left ventricle and pulmonary artery. The right ventricular systolic blood pressure (RVSP), pulmonary arterial pressure (PAP), left ventricular systolic pressure (LVSP) and aortic pressure were recorded using a Power Lab data acquisition system (ADInstruments Inc., CO).

[1] = Table 2, n = 4-6, hypoxia w/o treatment 40.54 ± 4.473, normal control 19.41 ± 1.281
[2] = Table 2, n = 4-6, hypoxia w/o treatment 41.94 ± 3.281, normal control 32.20 ± 1.884
[3] = Table 2, printed over hypoxia-induced increase 9.74
[4] = Table 2, printed over hypoxia-induced increase 21.13
[5] = Table 1, n = 4-5, hypoxia w/o treatment 38.98 ± 1.747, normal control 32.20 ± 1.884
[6] = Table 1, n = 4-5, hypoxia w/o treatment 39.54 ± 5.341, normal control 19.41 ± 1.281
[7] = Table 1, hypoxia-induced increase 6.78
[8] = Table 1, hypoxia-induced increase 19.39

Substance | mPAP (mmHg) [1] [mmHg] | RVSP (mmHg) [2] [mmHg] | reduction in pressure (of reduction in pressure/increase), RVSP [3] | reduction in pressure (of reduction in pressure/increase), mPAP [4] | % Improvement (reduction in pressure/increase), RVSP (Table 2) [%] | % Improvement (reduction in pressure/increase), mPAP (Table 2) [%] | % Reduction RVSP [%] | % Reduction mPAP [%] | mean pulmonary arterial pressure (mPAP) [mmHg] | right ventricular systolic pressure (RVSP) [mmHg] | RVSP (mmHg) [5] [mmHg] | mPAP (mmHg) [6] [mmHg] | reduction in pressure (of reduction in pressure/increase), RVSP [7] | reduction in pressure (of reduction in pressure/increase), mPAP [8] | % Improvement (reduction in pressure/increase), RVSP (Table 1) [%] | % Improvement (reduction in pressure/increase), mPAP (Table 1) [%] | attenuation (inhibition) of RVSP increase (hypoxia-induced RVSP increase) [%]
(mini-PEG)-CDCRHNTAG ({mini‑PEG}-CDCRHNTAG; not fully specified (bridges); printed as (mini-PEG)-CDCRHNTAG; cysteine pairing not given here) [V1P] | 21.88 ± 3.020 | 30.95 ± 3.867 | > 9.74 | (18.66/21.13) | 100 | 88 | 26 | 46 | 21.88±3.020 | 30.95±3.876 | – | – | – | – | – | – | –
(mini-PEG)-CLNCRHNTAG ({mini‑PEG}-CLNCRHNTAG; cysteine pairing not given here) [V2P] | 27.39 ± 2.973 | 29.95 ± 1.661 | > 9.74 | (13.15/21.13) | 100 | 62 | 29 | 32 | 27.39±2.973 | 29.95±1.661 | – | – | – | – | – | – | –
(mini-PEG)-CPCKDGVTIGIT ({mini‑PEG}-CPCKDGVTIGIT; cysteine pairing not given here) [V3P] | 20.22 ± 1.304 | 29.27 ± 1.986 | > 9.74 | (20.32/21.13) | 100 | 96 | 30 | 50 | 20.22±1.304 | 29.27±1.986 | – | – | – | – | – | – | –
CDCRHNTAG [V1-9aa] (Peptide based on human Netrin-1 sequence) [304-312 aa of human netrin-1] | – | – | – | – | – | – | 19 | 40 | 23.83±5.149 | 31.50±3.321 | 31.50 ± 3.321 | 23.83 ± 5.149 | (>6.78/6.78) | (15.97/19.39) | 100 | 81 | –
CDCRHNTAG [V1C] (disulfide 1-3) | 17.76 ± 1.403 | 26.80 ± 3.051 | > 9.74 | (>21.32/21.13) | 100 | 100 | 36 | 56 | 17.76±1.403 | 26.80±3.051 | – | – | – | – | – | – | –
CLNCRHNTAG (Peptide based on human Netrin-1 sequence) [V2-10aa, 368-377 aa] | – | – | – | – | – | – | 15 | 35 | 25.74±3.788 | 33.10±1.044 | 33.10 ± 1.044 | 25.74 ± 3.788 | (5.88/6.78) | (13.8/19.39) | 87 | 71 | 91
CPCKDGVTGIT (Peptide based on human Netrin-1 sequence) [V3-11aa, 423-433 aa] | – | – | – | – | – | – | 20 | 26 | 29.35±3.635 | 31.23±1.773 | 31.23 ± 1.773 | 29.35 ± 3.635 | (>6.78/6.78) | (10.19/19.39) | 100 | 53 | –
SDCRHNTAG (Peptide based on human Netrin-1 sequence) [V1S] | 16.58 ± 1.608 | 23.62 ± 0.518 | > 9.74 | (>21.32/21.13) | 100 | 100 | 44 | 59 | 16.58±1.608 | 23.62±0.518 | – | – | – | – | – | – | –
TDCRHNTAG (Peptide based on human Netrin-1 sequence) [V1T] | 24.52 ± 2.686 | 29.03 ± 2.960 | > 9.74 | (16.02/21.13) | 100 | 76 | 31 | 40 | 24.52±2.686 | 29.03±2.960 | – | – | – | – | – | – | –
dCDCRHNTAdG ([dC]DCRHNTAG; cysteine pairing not given here) [V1D] | 22.89 ± 3.237 | 29.41 ± 3.876 | > 9.74 | (17.65/21.13) | 100 | 84 | 30 | 44 | 22.89±3.237 | 29.41±3.876 | – | – | – | – | – | – | –
